Measurements taken from US20120095022A1, “DERIVATIVES OF 10-AMINO-1,2,3,4-TETRAHYDROPYRIDO[2,1-A]ISOINDOL-6(10BH)-ONES, METHOD FOR PREPARATION THEREOF AND THERAPEUTIC USES THEREOF” (UNIVERSITE D'ORLEANS, priority 2009, published 2012).
pIC50: −log10 of the molar value.

Legend:
[1] = system: fibroblast; test: Cytotoxicity on human cells, automated nuclei counting: fibroblast; assay type: cell-based; settings: exposed 24 h to 48 h, 0.1 to 25 μM
Method: (§1) Cytotoxicity: This method is based on an automated imaging analysis. 4.10^3 cells were cultivated on 96-well plates and left for 24 hours so as to bind, to spread and proliferate.
(§2) All the cell lines were cultivated in a DMEM or RPMI (Invitrogen) medium. All these media were completed with antibiotics (penicillin-streptomycin) (Lonza) and 10% by volume of fetal calf serum (Invitrogen). The cells were cultivated at 37° C. with 5% of CO2. The treatments with the molecules to be tested were carried out with increasing concentrations. The control experiments were also carried out by using suitable dilutions of DMSO (maximum 1% DMSO).

[2] = system: Huh7 (liver); test: Cytotoxicity on human cells, automated nuclei counting: Huh7; assay type: cell-based; settings: Huh-7, exposed 24 h to 48 h, 0.1 to 25 μM
Method: as §1, §2

[3] = biological target: T1, CDK5/D25 (Homo sapiens, UniProt Q00535); test: CDK5 kinase inhibition (33P-ATP, histone H1); assay type: biochemical; settings: buffer C, 30° C., 15 μM ATP, read-out: IC50 μM Kinases CDK5
T1 construct: made in house
Method: The protein kinase inhibition activities of the compounds of the invention are tested according to the following general procedure:
Buffer C: 60 mM β-glycerophosphate, 15 mM p-nitrophenyl-phosphate, 25 mM Mops (pH 7.2), 5 mM EGTA, 15 mM mgCl2, 1 mM DTT, 1 mM sodium vanadate and 1 mM phenylphosphate.
The controls were made with suitable dilutions of DMSO.
ATP (3.000 Ci/mmol.; 10 mCi/mL) in a final volume of 30 μL. After 30 mins of incubation at 30° C., 25 μL of supernatant aliquots were deposited on phosphocellulose Whatman P81 paper pieces of 2.5×3 cm, and after 20 seconds, the filters were washed five times (for at least 5 minutes each time) in a solution of 10 mL of phosphoric acid/1 litre of water. The wet filters were counted in the presence of 1 mL of scintillation fluid ACS (Amersham).

[4] = biological target: GSK-3αβ; test: GSK-3 kinase inhibition (GS-1 substrate); settings: read-out: IC50 μM Kinases GSK3, buffer A, 30° C., 15 μM ATP
[5] = biological target: DYRK1A (Homo sapiens, UniProt Q13627); test: DYRK1A kinase inhibition (Woodtide substrate)
[6] = system: NCI (lung); test: Cytotoxicity on human cells, automated nuclei counting: NCI; assay type: cell-based; settings: exposed 24 h to 48 h, 0.1 to 25 μM
Method: as §1, §2

[7] = system: Caco (colon); test: Cytotoxicity on human cells, automated nuclei counting: Caco; assay type: cell-based; settings: exposed 24 h to 48 h, 0.1 to 25 μM
Method: as §1, §2

[8] = system: HCT 116 (colon); test: Cytotoxicity on human cells, automated nuclei counting: HCT 116; assay type: cell-based; settings: HCT 116 cells, exposed 24 h to 48 h, 0.1 to 25 μM
Method: as §1, §2

[9] = system: PC3 (prostate); test: Cytotoxicity on human cells, automated nuclei counting: PC3; assay type: cell-based; settings: PC-3, exposed 24 h to 48 h, 0.1 to 25 μM
Method: as §1, §2

[10] = system: MDA-MB 231 (breast); test: Cytotoxicity on human cells, automated nuclei counting: MDA-MB 231; assay type: cell-based; settings: MDA-MB 231 cells, exposed 24 h to 48 h, 0.1 to 25 μM
Method: as §1, §2

T1 sequence (Q00535 whole entry): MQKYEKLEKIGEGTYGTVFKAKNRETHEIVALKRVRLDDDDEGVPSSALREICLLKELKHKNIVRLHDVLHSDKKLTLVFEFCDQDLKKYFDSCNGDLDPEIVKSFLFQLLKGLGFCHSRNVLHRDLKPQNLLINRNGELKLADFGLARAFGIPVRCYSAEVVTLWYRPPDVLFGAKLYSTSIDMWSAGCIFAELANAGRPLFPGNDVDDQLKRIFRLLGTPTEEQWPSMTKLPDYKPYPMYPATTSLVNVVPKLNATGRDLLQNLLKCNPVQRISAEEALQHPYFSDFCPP
T1 sequence (Q15078 99-307 partner limits assumed): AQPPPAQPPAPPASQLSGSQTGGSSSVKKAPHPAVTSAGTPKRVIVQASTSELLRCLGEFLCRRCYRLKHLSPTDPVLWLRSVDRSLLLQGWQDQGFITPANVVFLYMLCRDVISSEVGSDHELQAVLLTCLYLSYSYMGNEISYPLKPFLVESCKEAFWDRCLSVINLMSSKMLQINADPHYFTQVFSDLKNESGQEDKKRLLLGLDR

| SMILES | IC50 [3] [µM] | IC50 [4] [µM] | pIC50 [5] | melting point [°C] | IC50 [1] [µM] | IC50 [2] [µM] | IC50 [6] [µM] | IC50 [7] [µM] | IC50 [8] [µM] | IC50 [9] [µM] | IC50 [10] [µM] |
| --- | --- | --- | --- | --- | --- | --- | --- | --- | --- | --- | --- |
| O=C(Nc1ccc(Br)cn1)Nc1cccc2c1C1CC3(CCN1C2=O)SCCS3 (stereo not shown) [Compound 31, 1-(5-Bromopyridin-2-yl)-3-(6′-oxo-3′,4′,6′,10b′-tetrahydro-1′H-spiro[[1,3]dithiolane-2,2′-pyrido[2,1-a]isoindole]-10′-yl)urea] | 7.3 | 0.068 | ≤ 5.00 | 240 | 8 | 0.8 | 1.5 | 5 | 1.2 | 3 | 4 |
| O=C(Nc1nc2ccccc2s1)Nc1cccc2c1C1CCCCN1C2=O (stereo not shown) [Compound 34, 1-(Benzo[d]thiazol-2-yl)-3-(6-oxo-1,2,3,4,6,10b-hexahydropyrido[2,1-a]-isoindol-10-yl)urea] | 16 | 3.5 | 4.06 | 260 | 2 | 0.6 | 4 | 0.7 | 0.5 | 1 | 1.5 |
| O=C(Nc1ncccn1)Nc1cccc2c1C1CCCCN1C2=O (stereo not shown) [Compound 42, 1-(6-oxo-1,2,3,4,6,10b-hexahydro-pyrido[2,1-a]isoindol-10-yl)-3-pyrimidin-2-yl-urea] | > 10 | 0.75 | < 5.00 | 232 | 2.5 | 0.6 | 8 | 2 | 4 | 2 | 4 |
| Cc1cccc(NC(=O)Nc2cccc3c2C2CC4(CCN2C3=O)OCCO4)n1 (stereo not shown) [Compound 46] | > 10 | 0.92 | < 5.00 | 240 to 242 | 20 | 12 | 12 | 10 | 10 | 12 | 15 |
| O=C(Nc1cccc(Br)n1)Nc1cccc2c1C1CC3(CCN1C2=O)OCCO3 (stereo not shown) [Compound 47] | > 10 | 0.89 | < 5.00 | 184 to 186 | 20 | 8 | 20 | 12 | 6 | 6 | 20 |
| COc1cc(NC(=O)Nc2cccc3c2C2CC4(CCN2C3=O)OCCO4)nc2ccccc12 (stereo not shown) [Compound 48] | > 10 | 1 | < 5.00 | 258 to 260 | 20 | 8 | 20 | > 25 | 8 | 8 | 4 |
| Cc1cccc(NC(=O)Nc2cccc3c2C2CC4(CCN2C3=O)SCCS4)n1 (stereo not shown) [Compound 50] | > 10 | 2 | < 5.00 | 154 to 156 | 2 | 5 | 15 | 10 | 12 | 6 | 15 |
| COc1cc(NC(=O)Nc2cccc3c2C2CC(OC)CCN2C3=O)nc2ccccc12 (stereo not shown) [Compound 55, 1-(2-Methoxy-6-oxo-1,2,3,4,6,10b-hexahydropyrido[2,1-a]isoindol-10-yl)-3-(4-methoxyquinolin-2-yl)urea] | 8.5 | 0.18 | < 5.00 | > 260 | 10 | 3 | 5 | 10 | 2.5 | 3 | 15 |
| O=C1c2cccc(NC(=S)Nc3cnccn3)c2C2CCCCN12 (stereo not shown) [Compound 63, 1-(6-Oxo-1,2,3,4,6,10b-hexahydropyrido[2,1-a]isoindol-10-yl)-3-(pyrazin-2-yl)thiourea] | 26 | 8 | < 4.00 | 204 | > 25 | > 25 | > 25 | > 25 | > 25 | > 25 | > 25 |
| O=C1c2cccc(NC(=S)Nc3cc[nH]n3)c2C2CCCCN12 (stereo not shown) [Compound 64, 1-(6-Oxo-1,2,3,4,6,10b-hexahydropyrido[2,1-a]isoindol-10-yl)-3-(1H-pyrazol-3-yl)thiourea] | 56 | 16 | ≤ 4.00 | 208 | > 25 | 8 | 25 | 20 | 20 | 6 | 25 |

Compounds with a lower IC50 [3], results first:

| IC50 [3] [µM] | IC50 [4] [µM] | pIC50 [5] | melting point [°C] | SMILES | IC50 [1] [µM] | IC50 [2] [µM] | IC50 [6] [µM] | IC50 [7] [µM] | IC50 [8] [µM] | IC50 [9] [µM] | IC50 [10] [µM] |
| --- | --- | --- | --- | --- | --- | --- | --- | --- | --- | --- | --- |
| 3.1 | 0.61 | < 5.00 | > 260 | Cc1cccnc1NC(=O)Nc1cccc2c1C1CC3(CCN1C2=O)OCCO3 (stereo not shown) [Compound 45] | > 25 | > 25 | > 25 | > 25 | 25 | > 25 | > 25 |
| 2.7 | 0.033 | < 5.00 | 156 | Cc1cc(NC(=O)Nc2cccc3c2C2CCCCN2C3=O)no1 (stereo not shown) [Compound 24, 1-(5-Méthylisoxazol-3-yl)-3-(6-oxo-1,2,3,4,6,10b-hexahydropyrido[2,1-a]isoindol-10-yl)urea] | 12 | 3 | 10 | 3 | 2 | 6 | 3 |
| 1.7 | 0.13 | 5.62 | 152 | O=C(Nc1csc(-c2ccncc2)n1)Nc1cccc2c1C1CCCCN1C2=O (stereo not shown) [Compound 37, 1-(6-Oxo-1,2,3,4,6,10b-hexahydropyrido[2,1-a]isoindol-10-yl)-3-(2-(pyridin-4-yl)thiazol-4-yl)urea] | 3 | 2 | 4 | 1.5 | 0.7 | 1 | 1.5 |
| 0.53 | 0.12 | < 5.00 | 146 | Cc1nc(NC(=O)Nc2cccc3c2C2CCCCN2C3=O)cs1 (stereo not shown) [Compound 35, 1-(2-Methylthiazol-4-yl)-3-(6-oxo-1,2,3,4,6,10b-hexahydropyrido[2,1-a]isoindol-10-yl)urea] | 0.4 | 0.9 | 3 | 0.7 | 0.6 | 1.5 | 1.5 |
| 0.43 | 0.76 | < 5.00 | 178 to 180 | O=C(Nc1cscn1)Nc1cccc2c1C1CCCCN1C2=O (stereo not shown) [Compound 26, 1-(6-Oxo-1,2,3,4,6,10b-hexahydropyrido[2,1-a]isoindol-10-yl)-3-(thiazol-4-yl)urea] | 4 | 1.2 | 5 | 0.8 | 0.8 | 2 | 0.4 |
| 0.32 | 0.14 | < 5.00 | 140 to 142 | COC1CCN2C(=O)c3cccc(NC(=O)Nc4cnc(C)cn4)c3C2C1 (stereo not shown) [Compound 59, 1-(2-methoxy-6-oxo-1,2,3,4,6,10b-hexahydropyrido[2,1-a]isoindol-10-yl)-3-(5-methylpyrazin-2-yl)urea] | 5 | 1.2 | 6 | 12 | 3 | 5 | 6 |
| 0.22 | 0.05 | < 5.00 | > 260 | Cc1cnc(NC(=O)Nc2cccc3c2C2CC4(CCN2C3=O)SCCS4)cn1 (stereo not shown) [Compound 51] | 8 | 0.3 | 0.8 | 0.5 | 0.2 | 0.4 | 0.4 |
